Consider 41 compounds from patent US10266526B2, “Substituted 1,2,3-triazoles as SMYD inhibitors for treating cancer” (EPIZYME, INC., priority 2014, dated 2019).

For the test, the target named is SMYD3 (Homo sapiens (Human), UniProt Q9H7B4). As to the kind of experiment: SMYD3 biochemical assay (SMYD3 enzyme assay on MEKK2 protein substrate, 3H-SAM scintillation proximity assay). The settings on record: read-out: SMYD3 Biochem IC50. An outline of the steps: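 Detection used scintillation proximity beads to capture ³H-methylated GST-MEKK2 after quench with 100 uM final cold SAM. The reaction was started by SAM/MEKK2 addition after a 30 min RT compound–enzyme preincubation. Enzyme was tag-free full-length human SMYD3 from E. coli, in buffer of 25 mM Tris-Cl pH 8.0, 1 mM TCEP, 0.005% BSG, 0.005% Tween 20.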
Sequence of SMYD3 (Q9H7B4 whole entry): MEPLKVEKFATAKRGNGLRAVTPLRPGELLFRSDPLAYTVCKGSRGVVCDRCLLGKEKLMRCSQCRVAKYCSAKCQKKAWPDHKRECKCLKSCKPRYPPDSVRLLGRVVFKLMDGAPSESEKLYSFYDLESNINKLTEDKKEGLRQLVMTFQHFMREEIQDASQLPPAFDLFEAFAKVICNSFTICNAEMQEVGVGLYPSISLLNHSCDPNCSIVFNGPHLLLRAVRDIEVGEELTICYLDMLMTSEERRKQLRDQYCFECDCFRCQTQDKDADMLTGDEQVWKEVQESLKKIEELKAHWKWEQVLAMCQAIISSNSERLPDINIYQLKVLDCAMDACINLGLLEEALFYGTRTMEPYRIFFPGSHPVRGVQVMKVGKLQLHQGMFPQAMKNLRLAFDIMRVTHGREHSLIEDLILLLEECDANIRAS
With `NCCC(=O)N[C@H]1CC[C@H](NC(=O)c2ccc3c(c2)CCCC3)CC1` [compound 203, N-((1r,4r)-4-(3-aminopropanamido)cyclohexyl)-5,6,7,8-tetrahydronaphthalene-2-carboxamide], the IC50 amounted to 11.2 µM.
For `N[C@H]1CC[C@H](NC(=O)c2ccc3c(c2)CCCC3)CC1` [compound 204, N-((1r,4r)-4-aminocyclohexyl)-5,6,7,8-tetrahydronaphthalene-2-carboxamide], the IC50 turned out to be 47.4 µM.
Regarding `CC(NC(=O)c1cnccn1)C1CCN(C(=O)[C@H](C)N)CC1` (stereo partly drawn) [compound 205, N-(1-(1-(L-alanyl)piperidin-4-yl)ethyl)pyrazine-2-carboxamide], the IC50 was greater than 100 µM.
`CC(NC(=O)Cc1ccc(F)cc1)C1CCN(C(=O)[C@H](C)N)CC1` (stereo partly drawn) [compound 206, N-(1-(1-(L-alanyl)piperidin-4-yl)ethyl)-2-(4-fluorophenyl)acetamide]: the IC50 was greater than 100 µM.
Under `NCCC(=O)N[C@H]1CC[C@H](NC(=O)Cc2ccc(F)cc2)CC1` [compound 207, 3-amino-N-((1r,4r)-4-(2-(4-fluorophenyl)acetamido)cyclohexyl)propanamide] stands greater than 100 µM.
With `N[C@H]1CC[C@H](NC(=O)Cc2ccc(F)cc2)CC1` [compound 208, N-((1r,4r)-4-aminocyclohexyl)-2-(4-fluorophenyl)acetamide] the figure was greater than 100 µM; with `CC(NC(=O)c1cc[n+]([O-])cc1)C1CCN(C(=O)[C@H](C)N)CC1` (stereo partly drawn) [compound 209, 4-((1-(1-(L-alanyl)piperidin-4-yl)ethyl)carbamoyl)pyridine 1-oxide], greater than 100 µM; with `N[C@H]1CC[C@H](NC(=O)c2cc[n+]([O-])cc2)CC1` [compound 210, 4-(((1r,4r)-4-aminocyclohexyl)carbamoyl)pyridine 1-oxide], greater than 100 µM.
Under `Nc1ccnc2ccc(C(=O)N[C@H]3CC[C@H](N)CC3)cc12` [compound 211, 4-amino-N-((1r,4r)-4-aminocyclohexyl)quinoline-6-carboxamide] stands 43.7 µM; under `CC(NC(=O)c1ccc2nccc(N)c2c1)C1CCN(C(=O)[C@H](C)N)CC1` (stereo partly drawn) [compound 212, N-(1-(1-(L-alanyl)piperidin-4-yl)ethyl)-4-aminoquinoline-6-carboxamide], 15.2 µM.
Take `O=C1Cc2cc(C(=O)NC[C@@H]3CCNC3)ccc2N1` [compound 213, (R)-2-oxo-N-(pyrrolidin-3-ylmethyl)indoline-5-carboxamide]: the IC50 is 17.9 µM.
With `CN(C(=O)CN)C1CCC(NC(=O)c2ccc3c(c2)CC(=O)N3)CC1` (centres unmarked) [compound 214, N-(4-(2-amino-N-methylacetamido)cyclohexyl)-2-oxoindoline-5-carboxamide] the figure was 1.25 µM; with `Cc1cnc(C(=O)N[C@H]2CC[C@H](NC(=O)CCN)CC2)cn1` [compound 215, N-((1r,4r)-4-(3-aminopropanamido)cyclohexyl)-5-methylpyrazine-2-carboxamide], greater than 100 µM.
Turning to `Cc1nn(C(C)C(=O)NC(C)C2CCN(C(=O)[C@H](C)N)CC2)c(C)c1Br` (stereo partly drawn) [compound 216, N-(1-(1-(L-alanyl)piperidin-4-yl)ethyl)-2-(4-bromo-3,5-dimethyl-1H-pyrazol-1-yl)propanamide], the half-inhibitory concentration (IC50) was greater than 100 µM.
For `Cc1c(C(=O)NC(C)C2CCN(C(=O)[C@H](C)N)CC2)nnn1-c1ccccc1` (stereo partly drawn) [compound 217, N-(1-(1-(L-alanyl)piperidin-4-yl)ethyl)-5-methyl-1-phenyl-1H-1,2,3-triazole-4-carboxamide], the 50% inhibitory concentration (IC50) is greater than 100 µM.
Under `CC1=NN(c2ccc(C(=O)NC(C)C3CCN(C(=O)[C@H](C)N)CC3)cc2)C(=O)C1` (stereo partly drawn) [compound 218, N-(1-(1-(L-alanyl)piperidin-4-yl)ethyl)-4-(3-methyl-5-oxo-4,5-dihydro-1H-pyrazol-1-yl)benzamide] stands 77 µM; under `CC(NC(=O)c1ccc2cnn(C)c2c1)C1CCN(C(=O)[C@H](C)N)CC1` (stereo partly drawn) [compound 219, N-(1-(1-(L-alanyl)piperidin-4-yl)ethyl)-1-methyl-1H-indazole-6-carboxamide], greater than 100 µM; under `COc1ccc2cc(C(=O)NC(C)C3CCN(C(=O)[C@H](C)N)CC3)ccc2c1` (stereo partly drawn) [compound 220, N-(1-(1-(L-alanyl)piperidin-4-yl)ethyl)-6-methoxy-2-naphthamide], greater than 100 µM.
With `COc1cc(C(=O)NC(C)C2CCN(C(=O)[C@H](C)N)CC2)c2ccccc2n1` (stereo partly drawn) [compound 221, N-(1-(1-(L-alanyl)piperidin-4-yl)ethyl)-2-methoxyquinoline-4-carboxamide] the figure was greater than 100 µM; with `COc1cc(C(=O)N[C@H]2CC[C@H](NC(=O)CCN)CC2)c2ccccc2n1` [compound 222, N-((1r,4r)-4-(3-aminopropanamido)cyclohexyl)-2-methoxyquinoline-4-carboxamide], greater than 100 µM; with `COc1cc(C(=O)N[C@H]2CC[C@H](N)CC2)c2ccccc2n1` [compound 223, N-((1r,4r)-4-aminocyclohexyl)-2-methoxyquinoline-4-carboxamide], greater than 100 µM.
With `CC(NC(=O)c1cc(=O)c2ccccc2o1)C1CCN(C(=O)[C@H](C)N)CC1` (stereo partly drawn) [compound 224, N-(1-(1-(L-alanyl)piperidin-4-yl)ethyl)-4-oxo-4H-chromene-2-carboxamide] the figure was greater than 100 µM; with `CC(NC(=O)c1cc(O)c2ccccc2n1)C1CCN(C(=O)[C@H](C)N)CC1` (stereo partly drawn) [compound 225, N-(1-(1-(L-alanyl)piperidin-4-yl)ethyl)-4-hydroxyquinoline-2-carboxamide], greater than 100 µM; with `CC(NC(=O)c1ccc(-n2cnnc2)cc1)C1CCN(C(=O)[C@H](C)N)CC1` (stereo partly drawn) [compound 226, N-(1-(1-(L-alanyl)piperidin-4-yl)ethyl)-4-(4H-1,2,4-triazol-4-yl)benzamide], greater than 100 µM.
As for `CC(NC(=O)c1ccc(N2CCCC2)cc1)C1CCN(C(=O)[C@H](C)N)CC1` (stereo partly drawn) [compound 227, N-(1-(1-(L-alanyl)piperidin-4-yl)ethyl)-4-(pyrrolidin-1-yl)benzamide], the IC50 was 29.2 µM.
For `CC(NC(=O)c1ccc2ncsc2c1)C1CCN(C(=O)[C@H](C)N)CC1` (stereo partly drawn) [compound 228, N-(1-(1-(L-alanyl)piperidin-4-yl)ethyl)benzo[d]thiazole-6-carboxamide], the concentration for half-maximal inhibition (IC50) is greater than 100 µM.
For `CC(NC(=O)c1cc2cc(Cl)ccc2[nH]1)C1CCN(C(=O)[C@H](C)N)CC1` (stereo partly drawn) [compound 229, N-(1-(1-(L-alanyl)piperidin-4-yl)ethyl)-5-chloro-1H-indole-2-carboxamide], the IC50 is 77.9 µM.
For `NCCC(=O)N[C@H]1CC[C@H](NC(=O)c2cc3cc(Cl)ccc3[nH]2)CC1` [compound 230, N-((1r,4r)-4-(3-aminopropanamido)cyclohexyl)-5-chloro-1H-indole-2-carboxamide], the IC50 turned out to be 37.5 µM.
With `N[C@H]1CC[C@H](NC(=O)c2cc3cc(Cl)ccc3[nH]2)CC1` [compound 231, N-((1r,4r)-4-aminocyclohexyl)-5-chloro-1H-indole-2-carboxamide], the concentration for half-maximal inhibition (IC50) stood at 91.5 µM.
For `CC(NC(=O)c1cc2ccccc2[nH]1)C1CCN(C(=O)[C@H](C)N)CC1` (stereo partly drawn) [compound 232, N-(1-(1-(L-alanyl)piperidin-4-yl)ethyl)-1H-indole-2-carboxamide], the half-inhibitory concentration (IC50) was greater than 100 µM.
As for `NCCC(=O)N[C@H]1CC[C@H](NC(=O)c2cc3ccccc3[nH]2)CC1` [compound 233, N-((1r,4r)-4-(3-aminopropanamido)cyclohexyl)-1H-indole-2-carboxamide], the concentration for half-maximal inhibition (IC50) is greater than 100 µM.
Under `N[C@H]1CC[C@H](NC(=O)c2cc3ccccc3[nH]2)CC1` [compound 234, N-((1r,4r)-4-aminocyclohexyl)-1H-indole-2-carboxamide] stands greater than 100 µM; under `NCCC(=O)N[C@H]1CC[C@H](NC(=O)c2ccc3[nH]ccc3c2)CC1` [compound 235, N-((1r,4r)-4-(3-aminopropanamido)cyclohexyl)-1H-indole-5-carboxamide], 13.4 µM.
Under `CC(NC(=O)c1ccc2c(c1)no[n+]2[O-])C1CCN(C(=O)[C@H](C)N)CC1` (stereo partly drawn) [compound 236, 5-((1-(1-(L-alanyl)piperidin-4-yl)ethyl)carbamoyl)benzo[c][1,2,5]oxadiazole 1-oxide] stands greater than 100 µM.
With `CC(NC(=O)c1ccc2nonc2c1)C1CCN(C(=O)[C@H](C)N)CC1` (stereo partly drawn) [compound 237, N-(1-(1-(L-alanyl)piperidin-4-yl)ethyl)benzo[c][1,2,5]oxadiazole-5-carboxamide], the IC50 is greater than 100 µM.
With `CC(NC(=O)c1cnc2ccccc2n1)C1CCN(C(=O)[C@H](C)N)CC1` (stereo partly drawn) [compound 238, N-(1-(1-(L-alanyl)piperidin-4-yl)ethyl)quinoxaline-2-carboxamide], the 50% inhibitory concentration (IC50) is greater than 100 µM.
Under `CC(NC(=O)c1cn2ccsc2n1)C1CCN(C(=O)[C@H](C)N)CC1` (stereo partly drawn) [compound 239, N-(1-(1-(L-alanyl)piperidin-4-yl)ethyl)imidazo[2,1-b]thiazole-6-carboxamide] stands greater than 100 µM; under `CC(NC(=O)CCCn1ccnc1)C1CCN(C(=O)[C@H](C)N)CC1` (stereo partly drawn) [compound 241, N-(1-(1-(L-alanyl)piperidin-4-yl)ethyl)-4-(1H-imidazol-1-yl)butanamide], 82.9 µM; under `N[C@H]1CC[C@H](NC(=O)c2cc3cc(F)ccc3[nH]2)CC1` [compound 242, N-((1r,4r)-4-aminocyclohexyl)-5-fluoro-1H-indole-2-carboxamide], greater than 100 µM.
`CC(NC(=O)c1nc2ccccc2[nH]1)C1CCN(C(=O)[C@H](C)N)CC1` (stereo partly drawn) [compound 243, N-(1-(1-(L-alanyl)piperidin-4-yl)ethyl)-1H-benzo[d]imidazole-2-carboxamide]: the half-inhibitory concentration (IC50) was determined as 72.9 µM.
For the compound `CC(NC(=O)c1cc2ccccc2n1C)C1CCN(C(=O)[C@H](C)N)CC1` (stereo partly drawn) [compound 244, N-(1-(1-(L-alanyl)piperidin-4-yl)ethyl)-1-methyl-1H-indole-2-carboxamide], the IC50 was greater than 100 µM.
